Measurements reported in patent EP4692094A1 (Beijing Konruns Pharmaceutical Co., Ltd., priority 2023, dated 2024).

Key:
[1] = target: T1, KAT6A (Homo sapiens, UniProt Q92794); assay: Enzymatic activity assay for KAT6A acetyltransferase (TR-FRET, acetylation of histone substrate H3); format: biochemical
T1 construct: purchased active motife (Active Motif) 81223
How it was run: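 TR-FRET detection of biotinylated H3 acetylation by KAT6A with acetyl-CoA; compounds in 10-point 3-fold dilution (0.5% DMSO final) preincubated with enzyme 10 min at 25 °C, then 90 min reaction and 60 min Eu-antibody/ULight-SA detection at 25 °C. HTRF 665/615 ratio normalised to DMSO (0%) and top-dose control (100%); IC50 by nonlinear fit.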

[2] = In-vivo pharmacokinetic study in rats; design: species or system SD female rats; conditions: rat, plasma, po, 5 mg/kg, intragastric administration
Description: 1.1 Instrument: high-performance liquid chromatograph: SHIMADZU LC-30AD; mass spectrum: AB SCIEX mass spectrometer Triple Quad 5500; all measured data were calculated and processed using Microsoft Excel, and relevant pharmacokinetic parameters were calculated using WinNonlin software. The main obtained kinetic parameters are Tmax, T1/2, Cmax, AUC0-24 h, and AUCinf. […] Sample injection amount: 1 µL.
1.2 Animals: three SD female rats were used. The body weight range was 180-300 g. After purchase, the rats were bred in the experimental animal center for two days for later use. The rats were fasted 12 h before administration and 4 h after administration, and given ad libitum access to water during the assay. Blood samples were taken at predetermined time points after intragastric administration.
1.3 Vehicle: 0.5% HPMC (hydroxypropyl methylcellulose) + 0.4% Tween80 + 99.1% water. Preparation of intragastric administration solution: The compound was precisely weighed, the vehicle was added, and then the drug was completely dissolved by ultrasonication at room temperature for 5 min and prepared into a 0.5 mg/mL solution. After the intragastric administration, blood samples were taken at 0.083 h, 0.25 h, 0.5 h, 1.0 h, 2.0 h, 4.0 h, 7.0 h, and 24 h. The blood collection mode is as follows: 0.2 mL of the jugular vein blood was collected, EDTA-K2 was used as an anticoagulation agent, the collected blood sample was transferred into a microcentrifuge tube containing the anticoagulation agent, and the tube was centrifuged at 4 °C and 4000 g for 5 min to separate the plasma. All plasma samples collected were stored at -75±15 °C until analysis.
The compound was precisely weighed and prepared into a standard curve working solution and a quality control working solution at different concentrations. The blank plasma was added and prepared into a plasma standard curve and a quality control sample. LC/MS/MS analysis was performed after pretreatment using a protein precipitation method, and then the concentration of the compounds described above in the plasma was measured. All measured data were collected and processed by the relevant software, and pharmacokinetic parameters were calculated using Winnonlin software. Table 9. Pharmacokinetic parameters of some compounds in the examples in rats

[3] = target: T2, hERG channel (Homo sapiens, UniProt Q12809); assay: hERG channel assay (manual patch clamp); format: cell-based; conditions: HEK-293 cell line stably expressing the hERG channel, room temperature
T2 construct: expressed in transfected cells; host or cells: HEK-293
Description: 1.1 Test methods: This experiment adopted a manual patch clamp technology to detect the blocking effect of the compounds on electric current in the HEK-293 cell line stably expressing the hERG channel, and the risk of the compounds on the inhibitory effect on the cardiac hERG potassium channel was evaluated by fitting a concentration-effect relationship.
1.2 Experimental procedures: The patch clamp operation was performed as follows: Firstly, a capillary glass tube was drawn into a recording electrode with a microelectrode drawing instrument. An electrode filled with the intracellular fluid was mounted on the microelectrode holder. Under an inverted microscope, a microelectrode manipulator was used to immerse the electrode in the extracellular fluid, and the electrode resistance (Rpip) was recorded. The electrode was then slowly brought into contact with the cell surface, and negative pressure was applied to form a GΩ seal. At this time, fast capacitance compensation was performed, and the application of negative pressure was continued to break the cell membrane, forming a whole-cell recording mode. Finally, slow capacitance compensation was performed, and experimental parameters such as series resistance (Rs) were recorded. No current leakage compensation was provided. Administration was started when the hERG current of the whole-cell record was stable. Each drug concentration was maintained for about 5 min (or until the current was stable) for action before the next concentration was measured. Multiple concentrations were measured for each test compound. The coverslip with cells applied thereon was placed in the recording chamber under the inverted microscope. Gravity perfusion was used to flow the blank control extracellular fluid and the working solutions of the test compounds sequentially from low to high concentrations over the cells in the recording chamber. A peristaltic pump was used for liquid exchange during recording. For each cell, the current detected in the compound-free extracellular fluid was used as its own control group. The test was independently repeated three times for each concentration. All electrophysiological experiments were performed at room temperature.
Data processing: First, the tail current (Peak tail currentcompound) after the action of each drug concentration was standardized with the tail current of the blank control (Peak tail currentcontrol), and then the inhibition rate corresponding to each drug concentration was calculated ( 1−(Peak tail currentcompound)/(Peak tail currentcontrol) [formula] ). Subsequently, the mean, standard deviation (SD), and standard error (SE) were calculated for the inhibition rate corresponding to each concentration. The data were represented by Mean ± SE. IC50 value calculation of the compounds and dose-effect curve fitting were performed using the GraphPad Prism software. The data obtained are shown in Table 12: Table 12. hERG channel assay results

T1 sequence (Q92794 whole entry): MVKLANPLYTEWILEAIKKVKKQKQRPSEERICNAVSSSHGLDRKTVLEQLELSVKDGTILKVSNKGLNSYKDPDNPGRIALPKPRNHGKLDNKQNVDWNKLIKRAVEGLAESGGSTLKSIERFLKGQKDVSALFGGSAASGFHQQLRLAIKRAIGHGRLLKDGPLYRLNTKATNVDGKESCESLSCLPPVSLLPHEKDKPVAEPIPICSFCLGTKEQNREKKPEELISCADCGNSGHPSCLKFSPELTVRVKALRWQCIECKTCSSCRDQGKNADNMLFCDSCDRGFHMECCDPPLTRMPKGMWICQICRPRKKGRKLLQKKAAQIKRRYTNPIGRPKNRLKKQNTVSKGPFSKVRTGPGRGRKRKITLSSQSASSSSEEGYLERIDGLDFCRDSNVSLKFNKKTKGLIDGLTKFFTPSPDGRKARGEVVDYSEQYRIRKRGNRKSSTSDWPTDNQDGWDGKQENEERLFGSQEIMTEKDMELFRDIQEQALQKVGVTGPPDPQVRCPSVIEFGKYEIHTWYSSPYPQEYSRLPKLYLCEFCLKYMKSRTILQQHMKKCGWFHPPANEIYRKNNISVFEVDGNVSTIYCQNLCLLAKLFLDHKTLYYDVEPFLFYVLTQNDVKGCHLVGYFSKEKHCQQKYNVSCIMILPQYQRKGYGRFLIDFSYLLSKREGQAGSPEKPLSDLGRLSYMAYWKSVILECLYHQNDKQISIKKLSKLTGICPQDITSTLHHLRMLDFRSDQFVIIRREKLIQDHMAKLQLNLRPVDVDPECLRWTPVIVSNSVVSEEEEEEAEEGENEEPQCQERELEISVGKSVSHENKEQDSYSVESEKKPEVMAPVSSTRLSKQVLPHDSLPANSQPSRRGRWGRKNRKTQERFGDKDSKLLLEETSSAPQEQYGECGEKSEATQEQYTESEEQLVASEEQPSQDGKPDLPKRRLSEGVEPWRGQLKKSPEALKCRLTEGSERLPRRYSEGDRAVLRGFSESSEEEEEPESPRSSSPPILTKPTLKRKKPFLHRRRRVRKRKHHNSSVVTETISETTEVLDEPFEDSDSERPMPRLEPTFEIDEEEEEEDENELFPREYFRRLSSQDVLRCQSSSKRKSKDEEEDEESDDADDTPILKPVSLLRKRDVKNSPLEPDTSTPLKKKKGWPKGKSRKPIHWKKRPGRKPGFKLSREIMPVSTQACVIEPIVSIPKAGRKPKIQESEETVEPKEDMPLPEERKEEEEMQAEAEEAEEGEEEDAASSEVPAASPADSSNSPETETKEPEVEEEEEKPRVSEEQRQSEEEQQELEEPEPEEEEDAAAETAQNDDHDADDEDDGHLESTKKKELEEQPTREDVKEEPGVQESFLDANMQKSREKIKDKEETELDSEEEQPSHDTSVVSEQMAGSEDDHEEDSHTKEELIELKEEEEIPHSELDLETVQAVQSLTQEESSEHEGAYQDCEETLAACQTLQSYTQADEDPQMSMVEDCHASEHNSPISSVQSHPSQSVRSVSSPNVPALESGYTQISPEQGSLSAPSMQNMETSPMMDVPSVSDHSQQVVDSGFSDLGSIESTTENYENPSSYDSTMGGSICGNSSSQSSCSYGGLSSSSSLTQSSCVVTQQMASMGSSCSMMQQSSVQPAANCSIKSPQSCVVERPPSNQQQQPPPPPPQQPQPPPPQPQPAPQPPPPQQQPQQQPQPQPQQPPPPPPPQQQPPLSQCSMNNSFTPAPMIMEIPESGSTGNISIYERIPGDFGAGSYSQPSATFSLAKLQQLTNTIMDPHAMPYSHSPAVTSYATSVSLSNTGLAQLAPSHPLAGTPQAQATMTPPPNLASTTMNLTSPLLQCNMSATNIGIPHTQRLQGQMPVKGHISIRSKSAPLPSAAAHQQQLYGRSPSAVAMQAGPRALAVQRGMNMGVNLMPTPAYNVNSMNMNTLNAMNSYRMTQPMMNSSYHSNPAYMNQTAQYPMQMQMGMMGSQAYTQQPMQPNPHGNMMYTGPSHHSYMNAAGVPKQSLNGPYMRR
T2 sequence (Q12809 whole entry): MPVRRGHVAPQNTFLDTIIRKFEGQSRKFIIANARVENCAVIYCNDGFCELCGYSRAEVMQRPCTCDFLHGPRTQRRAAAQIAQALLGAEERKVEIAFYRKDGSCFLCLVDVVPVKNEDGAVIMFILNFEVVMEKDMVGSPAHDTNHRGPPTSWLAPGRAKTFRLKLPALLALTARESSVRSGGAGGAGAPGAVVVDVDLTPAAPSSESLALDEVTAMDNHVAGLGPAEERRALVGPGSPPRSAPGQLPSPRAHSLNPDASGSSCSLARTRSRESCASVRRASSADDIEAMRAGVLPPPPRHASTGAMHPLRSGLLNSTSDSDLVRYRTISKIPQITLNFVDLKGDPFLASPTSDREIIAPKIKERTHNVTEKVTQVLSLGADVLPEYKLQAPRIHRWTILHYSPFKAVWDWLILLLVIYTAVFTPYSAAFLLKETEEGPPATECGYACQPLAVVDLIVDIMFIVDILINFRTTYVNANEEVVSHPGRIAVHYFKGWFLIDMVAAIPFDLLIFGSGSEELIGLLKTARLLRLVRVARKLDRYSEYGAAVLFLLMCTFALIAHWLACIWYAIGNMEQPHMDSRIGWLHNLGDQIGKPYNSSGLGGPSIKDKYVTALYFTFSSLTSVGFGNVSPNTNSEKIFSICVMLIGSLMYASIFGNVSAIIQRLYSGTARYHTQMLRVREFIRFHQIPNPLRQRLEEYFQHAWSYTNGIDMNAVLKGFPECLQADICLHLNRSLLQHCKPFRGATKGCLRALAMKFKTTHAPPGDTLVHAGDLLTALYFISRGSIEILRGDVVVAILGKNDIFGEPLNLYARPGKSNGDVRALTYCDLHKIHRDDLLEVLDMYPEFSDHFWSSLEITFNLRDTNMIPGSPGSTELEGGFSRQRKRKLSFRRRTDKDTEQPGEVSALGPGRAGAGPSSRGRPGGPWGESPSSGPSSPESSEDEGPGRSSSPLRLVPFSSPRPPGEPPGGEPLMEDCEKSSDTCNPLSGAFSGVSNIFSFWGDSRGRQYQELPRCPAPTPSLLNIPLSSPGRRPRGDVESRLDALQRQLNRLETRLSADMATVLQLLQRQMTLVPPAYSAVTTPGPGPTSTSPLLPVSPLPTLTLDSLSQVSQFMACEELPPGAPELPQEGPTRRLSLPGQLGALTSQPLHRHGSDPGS

Row | Compound | IC50 [1] [nM] | half-life ([2]; female, SD) [h] | AUC(0-inf) ([2]; female, SD) [ng·h/mL] | Cmax ([2]; female, SD) [ng/mL] | Tmax ([2]; female, SD) [h] | AUC(0-t) ([2]; female, SD, read-out: AUC0-24h) [ng·h/mL] | IC50 [3] [nM] | AUC(0-inf) [2] [ng·h/mL] | Cmax [2] [ng/mL] | Tmax [2] [h] | AUC(0-t) at 24 h ([2]; read-out: AUC0-24h) [ng·h/mL]
1 | COc1cc2c(cc1S(=O)(=O)Nc1noc3cc(Cn4cccn4)nc(OC)c13)CCCC2 [Example 2, N-(6-((1H-Pyrazol-1-yl)methyl)-4-methoxyisoxazolo[4,5-c]pyridin-3-yl)-3-methoxy-5,6,7,8-tetrahydronaphthalene-2-sulfonamide] | 0.72 | ≤ 10 | 71500 | 4410 | 6 | 64800 | > 30000 |  |  |  | 
2 | COc1nc(Cn2cccn2)cc2onc(NS(=O)(=O)c3cccc4c3OCCO4)c12 [Example 4, N-(6-((1H-Pyrazol-1-yl)methyl)-4-methoxyisoxazolo[4,5-c]pyridin-3-yl)-2,3-dihydrobenzo[b][1,4]dioxine-5-sulfonamide] | 1.51 |  | 12000 | 5960 | 0.25 | 11800 | > 30000 |  |  |  | 
3 | COc1nc(Cn2cccn2)cc2onc(NS(=O)(=O)c3cccc4ccoc34)c12 [Example 5, N-(6-((1H-Pyrazol-1-yl)methyl)-4-methoxyisoxazolo[4,5-c]pyridin-3-yl)benzofuran-7-sulfonamide] | 4.52 | ≤ 10 | 19700 | 5960 | 0.25 | 18500 | > 30000 |  |  |  | 
4 | COc1ccc2c(c1S(=O)(=O)Nc1noc3cc(Cn4cccn4)nc(OC)c13)OCC2 [Example 9, N-(6-((1H-Pyrazol-1-yl)methyl)-4-methoxyisoxazolo[4,5-c]pyridin-3-yl)-6-methoxy-2,3-dihydrobenzofuran-7-sulfonamide] | 0.92 |  | 215000 | 22500 | 1.83 | 215000 | > 30000 |  |  |  | 
5 | COc1ccc2ccoc2c1S(=O)(=O)Nc1noc2cc(Cn3cccn3)nc(OC)c12 [Example 10, N-(6-((1H-Pyrazol-1-yl)methyl)-4-methoxyisoxazolo[4,5-c]pyridin-3-yl)-6-methoxybenzofuran-7-sulfonamide] | 0.38 |  | 74300 | 10500 | 0.5 | 72300 | > 30000 |  |  |  | 
6 | COc1cc2c(cc1S(=O)(=O)Nc1noc3cc(Cn4cccn4)nc(OC)c13)OCC2 [Example 59, N-(6-((1H-Pyrazol-1-yl)methyl)-4-methoxyisoxazolo[4,5-c]pyridin-3-yl)-5-methoxy-2,3-dihydrobenzofuran-6-sulfonamide] | 0.95 |  | 167000 | 16500 | 1.17 | 166000 | > 30000 |  |  |  | 
7 | COc1cc2c(cc1S(=O)(=O)Nc1noc3cc(Cn4cccn4)nc(OC)c13)CCCO2 [Example 76, N-(6-((1H-Pyrazol-1-yl)methyl)-4-methoxyisoxazolo[4,5-c]pyridin-3-yl)-7-methoxy-3,4-dihydro-1H-benzopyran-6-sulfonamide] | 1.05 |  |  |  |  |  |  | 162000 | 14400 | 2.33 | 158000
